Results as given in ChEMBL document CHEMBL3046616, “Design, synthesis, and biological activities of milbemycin analogues” (2011).

Columns and labels:
Type in all cases: functional
Aphis fabae = experiment: Insecticidal activity against Aphis fabae (black bean aphid) infested soybean tender shoots measured 48 hr post compound dose by modified FAO dip method; parameters: concentration or dose not given beside the values
Mythimna separata = experiment: Insecticidal activity against Mythimna separata (Oriental armyworm) fourth-instar larvae reared compound pre-treated corn leaves assessed as insect mortality at 200 mg/L measured 2 days post compound dose
Tetranychus cinnabarinus = experiment: Insecticidal activity against Tetranychus cinnabarinus (carmine spider mite) […] assessed as larvicidal activity at 0.006 mg/L after 48 hr

Structure (SMILES) | mortality (Aphis fabae) | mortality at 200 µg/mL (Mythimna separata) | mortality at 0.006 µg/mL (Tetranychus cinnabarinus)
CCC(C)[C@H]1O[C@]2(CC[C@@H]1C)C[C@@H]1C[C@@H](C/C=C(\C)[C@@H](O[C@H]3C[C@H](OC)[C@@H](OC(=O)c4ccccc4OC)[C@H](C)O3)[C@@H](C)/C=C/C=C3\CO[C@@H]4[C@H](O)C(C)=C[C@@H](C(=O)O1)[C@]34O)O2 (stereo partly drawn) | 100% | 98.2% | 16.4%
CCC(C)[C@H]1O[C@]2(CC[C@@H]1C)C[C@@H]1C[C@@H](C/C=C(\C)[C@@H](O[C@H]3C[C@H](OC)[C@@H](OC(=O)c4ccccc4)[C@H](C)O3)[C@@H](C)/C=C/C=C3\CO[C@@H]4/C(=N/OC)C(C)=C[C@@H](C(=O)O1)[C@]34O)O2 (stereo partly drawn) | 5.9% | 0% | 8.6%
CCC(C)[C@H]1O[C@]2(CC[C@@H]1C)C[C@@H]1C[C@@H](C/C=C(\C)[C@@H](O[C@H]3C[C@H](OC)[C@@H](OC(=O)c4ccc(F)cc4)[C@H](C)O3)[C@@H](C)/C=C/C=C3\CO[C@@H]4/C(=N/OC)C(C)=C[C@@H](C(=O)O1)[C@]34O)O2 (stereo partly drawn) | 11.2% | 0% | 11.1%
CCC(C)[C@H]1O[C@]2(CC[C@@H]1C)C[C@@H]1C[C@@H](C/C=C(\C)[C@@H](O[C@H]3C[C@H](OC)[C@@H](OC(=O)c4ccc(OC)cc4)[C@H](C)O3)[C@@H](C)/C=C/C=C3\CO[C@@H]4/C(=N/OC)C(C)=C[C@@H](C(=O)O1)[C@]34O)O2 (stereo partly drawn) | 9.3% | 0% | 6.8%
CCC(C)[C@H]1O[C@]2(CC[C@@H]1C)C[C@@H]1C[C@@H](C/C=C(\C)[C@@H](O[C@H]3C[C@H](OC)[C@@H](OC(=O)c4ccc(C)cc4)[C@H](C)O3)[C@@H](C)/C=C/C=C3\CO[C@@H]4[C@H](O)C(C)=C[C@@H](C(=O)O1)[C@]34O)O2 (stereo partly drawn) | 92.5% | 89.7% | 4.5%
CCC(C)[C@H]1O[C@]2(CC[C@@H]1C)C[C@@H]1C[C@@H](C/C=C(\C)[C@@H](OC(=O)c3ccc(OC)cc3)[C@@H](C)/C=C/C=C3\CO[C@@H]4[C@H](O)C(C)=C[C@@H](C(=O)O1)[C@]34O)O2 (stereo partly drawn) | 75.2% | 100% | 34.8%
CCC(C)[C@H]1O[C@]2(CC[C@@H]1C)C[C@@H]1C[C@@H](C/C=C(\C)[C@@H](OC(=O)CC(C)(C)C)[C@@H](C)/C=C/C=C3\CO[C@@H]4[C@H](O)C(C)=C[C@@H](C(=O)O1)[C@]34O)O2 (stereo partly drawn) | 76.5% | 88.9% | 35.5%
CCC(C)[C@H]1O[C@]2(CC[C@@H]1C)C[C@@H]1C[C@@H](C/C=C(\C)[C@@H](O[C@H]3C[C@H](OC)[C@@H](OC(=O)c4cc(F)c(Cl)nc4Cl)[C@H](C)O3)[C@@H](C)/C=C/C=C3\CO[C@@H]4[C@H](O)C(C)=C[C@@H](C(=O)O1)[C@]34O)O2 (stereo partly drawn) | 88.2% | 0% | 16.5%
CCC(C)[C@H]1O[C@]2(CC[C@@H]1C)C[C@@H]1C[C@@H](C/C=C(\C)[C@@H](OC(=O)c3ccc(C)cc3)[C@@H](C)/C=C/C=C3\CO[C@@H]4[C@H](O)C(C)=C[C@@H](C(=O)O1)[C@]34O)O2 (stereo partly drawn) | 56.4% | 87.6% | 27.1%
CCC(C)[C@H]1O[C@]2(CC[C@@H]1C)C[C@@H]1C[C@@H](C/C=C(\C)[C@@H](OC(=O)c3ccc(F)cc3)[C@@H](C)/C=C/C=C3\CO[C@@H]4[C@H](O)C(C)=C[C@@H](C(=O)O1)[C@]34O)O2 (stereo partly drawn) | 56.8% | 83.3% | 47.4%
CCC(C)[C@H]1O[C@]2(CC[C@@H]1C)C[C@@H]1C[C@@H](C/C=C(\C)[C@@H](O[C@H]3C[C@H](OC)[C@@H](OC(=O)Nc4ccccc4)[C@H](C)O3)[C@@H](C)/C=C/C=C3\CO[C@@H]4[C@H](O)C(C)=C[C@@H](C(=O)O1)[C@]34O)O2 (stereo partly drawn) | 97.6% | 100% | 45.2%
CCC(C)[C@H]1O[C@]2(CC[C@@H]1C)C[C@@H]1C[C@@H](C/C=C(\C)[C@@H](OC(=O)Cc3ccccc3)[C@@H](C)/C=C/C=C3\CO[C@@H]4[C@H](O)C(C)=C[C@@H](C(=O)O1)[C@]34O)O2 (stereo partly drawn) | 62.7% | 89.9% | 44.9%
CCC(C)[C@H]1O[C@]2(CC[C@@H]1C)C[C@@H]1C[C@@H](C/C=C(\C)[C@@H](O[C@H]3C[C@H](OC)[C@@H](OC(=O)c4ccc(Cl)cc4)[C@H](C)O3)[C@@H](C)/C=C/C=C3\CO[C@@H]4/C(=N/OC)C(C)=C[C@@H](C(=O)O1)[C@]34O)O2 (stereo partly drawn) | 8.7% | 0% | 6.2%
CCC(C)[C@H]1O[C@]2(CC[C@@H]1C)C[C@@H]1C[C@@H](C/C=C(\C)[C@@H](OC(=O)/C(=N\OC)c3ccccc3)[C@@H](C)/C=C/C=C3\CO[C@@H]4[C@H](O)C(C)=C[C@@H](C(=O)O1)[C@]34O)O2 (stereo partly drawn) | 86.3% | 75.5% | 41.5%
CCC(C)[C@H]1O[C@]2(CC[C@@H]1C)C[C@@H]1C[C@@H](C/C=C(\C)[C@@H](O[C@H]3C[C@H](OC)[C@@H](OC(=O)/C(=N\OC)c4ccccc4)[C@H](C)O3)[C@@H](C)/C=C/C=C3\CO[C@@H]4/C(=N/OC)C(C)=C[C@@H](C(=O)O1)[C@]34O)O2 (stereo partly drawn) | 15.9% | 0% | 36.6%
CCC(C)[C@H]1O[C@]2(CC[C@@H]1C)C[C@@H]1C[C@@H](C/C=C(\C)[C@@H](OC(=O)c3ccccc3)[C@@H](C)/C=C/C=C3\CO[C@@H]4[C@H](O)C(C)=C[C@@H](C(=O)O1)[C@]34O)O2 (stereo partly drawn) | 76.5% | 88.6% | 31.1%
CCC(C)[C@H]1O[C@]2(CC[C@@H]1C)C[C@@H]1C[C@@H](C/C=C(\C)[C@@H](OC(=O)Nc3ccccc3)[C@@H](C)/C=C/C=C3\CO[C@@H]4[C@H](O)C(C)=C[C@@H](C(=O)O1)[C@]34O)O2 (stereo partly drawn) | 96.8% | 100% | 55.2%
CCC(C)[C@H]1O[C@]2(CC[C@@H]1C)C[C@@H]1C[C@@H](C/C=C(\C)[C@@H](OC(=O)c3ccc(Cl)cc3)[C@@H](C)/C=C/C=C3\CO[C@@H]4/C(=N/OC)C(C)=C[C@@H](C(=O)O1)[C@]34O)O2 (stereo partly drawn) | 0% | 0% | 10.2%
C/C=C\C(=O)O[C@@H]1/C(C)=C/C[C@@H]2C[C@@H](C[C@]3(CC[C@H](C)[C@@H](C(C)CC)O3)O2)OC(=O)[C@@H]2C=C(C)[C@@H](O)[C@H]3OC/C(=C\C=C\[C@@H]1C)[C@]32O (stereo partly drawn) | 73.5% | 76.8% | 40.9%
CCC(C)[C@H]1O[C@]2(CC[C@@H]1C)C[C@@H]1C[C@@H](C/C=C(\C)[C@@H](O[C@H]3C[C@H](OC)[C@@H](OC(=O)C4C(C=C(Cl)Cl)C4(C)C)[C@H](C)O3)[C@@H](C)/C=C/C=C3\CO[C@@H]4[C@H](O)C(C)=C[C@@H](C(=O)O1)[C@]34O)O2 (stereo partly drawn) | 92.3% | 87.2% | 11.8%
CCC(C)[C@H]1O[C@]2(CC[C@@H]1C)C[C@@H]1C[C@@H](C/C=C(\C)[C@@H](OC(=O)C3C(C=C(Br)Br)C3(C)C)[C@@H](C)/C=C/C=C3\CO[C@@H]4[C@H](O)C(C)=C[C@@H](C(=O)O1)[C@]34O)O2 (stereo partly drawn) | 72.9% | 100% | 32.1%
